According to ChEMBL document CHEMBL4364280 (Eur J Med Chem, 2019):
Active and inactive are the calls of the source. The calls are words filed in the database; no cut-off is given here.

Assays:
[1] = target: T1, 5-hydroxytryptamine receptor 6 (Homo sapiens, UniProt P50406); assay: Displacement of [3H]-LSD from human 5-HT6R expressed in human HEK293 cells incubated for 1 hr by radioligand binding assay; assay type: cell-based
[2] = target: T2, 5-hydroxytryptamine receptor 1A (Homo sapiens, UniProt P08908); assay: Displacement of [3H]-8-OH-DPAT from human 5-HT1A expressed in human HEK293 cells assessed as inhibitory constant incubated for 1 hr by radioligand binding assay; assay type: cell-based
T2 sequence (P08908 whole entry): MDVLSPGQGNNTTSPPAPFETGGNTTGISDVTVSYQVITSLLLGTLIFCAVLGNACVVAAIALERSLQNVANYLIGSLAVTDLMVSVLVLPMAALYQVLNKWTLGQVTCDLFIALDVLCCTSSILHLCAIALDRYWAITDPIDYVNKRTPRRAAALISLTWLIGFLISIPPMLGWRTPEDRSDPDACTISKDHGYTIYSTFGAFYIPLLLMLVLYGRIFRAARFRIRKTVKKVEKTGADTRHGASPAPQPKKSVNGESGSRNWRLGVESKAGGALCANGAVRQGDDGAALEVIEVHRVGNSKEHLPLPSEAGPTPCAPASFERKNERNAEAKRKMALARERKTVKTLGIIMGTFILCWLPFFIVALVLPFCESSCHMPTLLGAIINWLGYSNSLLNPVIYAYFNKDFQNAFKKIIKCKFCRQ

[3] = target: 5-hydroxytryptamine receptor 7 (Homo sapiens, UniProt P34969); assay: Displacement of [3H]-5-CT from human 5-HT7R expressed in human HEK293 cells assessed as inhibitory constant incubated for 1 hr by radioligand binding assay; assay type: cell-based
5-hydroxytryptamine receptor 7, sequence (P34969 whole entry): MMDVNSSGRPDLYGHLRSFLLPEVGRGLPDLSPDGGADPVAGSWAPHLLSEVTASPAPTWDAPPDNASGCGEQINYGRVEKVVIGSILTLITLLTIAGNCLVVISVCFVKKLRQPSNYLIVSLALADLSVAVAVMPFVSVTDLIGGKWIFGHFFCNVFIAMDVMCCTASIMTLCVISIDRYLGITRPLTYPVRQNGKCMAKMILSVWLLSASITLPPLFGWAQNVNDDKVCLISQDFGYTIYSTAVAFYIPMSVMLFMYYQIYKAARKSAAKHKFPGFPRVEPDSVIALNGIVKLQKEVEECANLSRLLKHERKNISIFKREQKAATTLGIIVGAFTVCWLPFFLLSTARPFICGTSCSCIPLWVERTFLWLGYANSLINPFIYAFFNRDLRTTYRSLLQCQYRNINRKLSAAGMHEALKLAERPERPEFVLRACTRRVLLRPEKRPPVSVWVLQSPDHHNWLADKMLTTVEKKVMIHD

[4] = target: D(2) dopamine receptor (Homo sapiens, UniProt P14416); assay: Displacement of [3H]-raclopride from human D2L receptor expressed in human HEK293 cells incubated for 1 hr by radioligand binding assay; assay type: cell-based
D(2) dopamine receptor, sequence (P14416 whole entry): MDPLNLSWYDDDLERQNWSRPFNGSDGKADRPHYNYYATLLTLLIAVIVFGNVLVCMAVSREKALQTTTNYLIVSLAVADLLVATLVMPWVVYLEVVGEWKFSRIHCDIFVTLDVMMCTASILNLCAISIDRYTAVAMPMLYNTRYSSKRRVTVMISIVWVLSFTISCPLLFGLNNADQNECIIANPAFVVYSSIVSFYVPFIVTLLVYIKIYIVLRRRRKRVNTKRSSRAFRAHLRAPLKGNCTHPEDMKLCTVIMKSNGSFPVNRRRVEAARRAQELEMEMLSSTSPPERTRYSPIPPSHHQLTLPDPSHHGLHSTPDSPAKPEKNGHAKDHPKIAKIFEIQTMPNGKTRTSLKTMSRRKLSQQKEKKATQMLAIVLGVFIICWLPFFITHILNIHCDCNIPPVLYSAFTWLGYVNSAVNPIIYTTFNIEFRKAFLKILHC

[5] = target: 5-hydroxytryptamine receptor 2A (Homo sapiens, UniProt P28223); assay: Displacement of [3H]-Ketanserin from human 5-HT2A expressed in CHO-K1 cells incubated for […] by radioligand binding assay; assay type: cell-based
5-hydroxytryptamine receptor 2A, sequence (P28223 whole entry): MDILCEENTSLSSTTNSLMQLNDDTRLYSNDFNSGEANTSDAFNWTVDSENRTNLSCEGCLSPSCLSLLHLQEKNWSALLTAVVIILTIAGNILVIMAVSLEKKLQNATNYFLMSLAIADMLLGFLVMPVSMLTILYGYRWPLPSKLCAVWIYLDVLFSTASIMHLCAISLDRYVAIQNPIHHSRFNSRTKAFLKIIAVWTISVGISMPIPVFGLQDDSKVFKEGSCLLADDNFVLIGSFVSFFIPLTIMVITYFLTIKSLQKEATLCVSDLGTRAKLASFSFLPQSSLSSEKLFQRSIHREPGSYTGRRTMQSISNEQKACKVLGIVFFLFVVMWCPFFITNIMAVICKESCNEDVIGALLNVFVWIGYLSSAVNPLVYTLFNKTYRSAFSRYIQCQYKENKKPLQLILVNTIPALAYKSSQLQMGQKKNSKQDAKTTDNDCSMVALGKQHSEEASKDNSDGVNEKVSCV

[6] = target: T1, 5-hydroxytryptamine receptor 6; assay: Agonist activity at recombinant human 5HT6 receptor expressed in CHOK1 cells co-expressing Galpha16/aequorin assessed as increase in calcium mobilization and measured for 60 secs in presence of coelenterazine by luminescence assay relative to control; assay type: functional, cell-based
[7] = test system: Rattus norvegicus; assay: Antidepressant activity in Wistar rat assessed as reduction in immobility at 10 mg/kg, ip measured after 30 mins by forced swim test; assay type: functional, organism-based
[8] = Selectivity ratio of CC50 for cytotoxicity against human SH-SY5Y cells to ratio of Ki for human 5-HT6R expressed in human HEK293 cells
[9] = Mutagenicity in Salmonella typhimurium TA100 assessed as fold increase over MCB at 1 uM preincubated for 90 mins and measured after 72 hrs by Ames test; assay type: toxicity; details: salmonella enterica subsp. enterica serovar typhimurium
[10] = Mutagenicity in Salmonella typhimurium TA100 assessed as increase in revertant colonies at 10 uM preincubated for 90 mins and measured after 72 hrs by Ames test; assay type: toxicity; details: salmonella enterica subsp. enterica serovar typhimurium
[11] = Mutagenicity in Salmonella typhimurium TA100 assessed as increase in revertant colonies at 1 uM preincubated for 90 mins and measured after 72 hrs by Ames test; assay type: toxicity; details: salmonella enterica subsp. enterica serovar typhimurium
[12] = Mutagenicity in Salmonella typhimurium TA100 assessed as fold increase over MCB at 10 uM preincubated for 90 mins and measured after 72 hrs by Ames test; assay type: toxicity; details: salmonella enterica subsp. enterica serovar typhimurium
[13] = test system: SH-SY5Y; assay: Cytotoxicity against human SH-SY5Y cells assessed as decrease in cell viability at 100 uM incubated for 72 hrs by MTS assay; assay type: cell-based
[14] = test system: Rattus norvegicus; assay: Antidepressant activity in Wistar rat assessed as reduction in immobility at 0.1 to 1 mg/kg, ip measured after 60 mins by forced swim test; assay type: functional, organism-based
[15] = target: T1, 5-hydroxytryptamine receptor 6; assay: Antagonist activity at recombinant human 5HT6 receptor expressed in CHOK1 cells co-expressing Galpha16/aequorin assessed as reduction in serotonin-induced calcium mobilization flux preincubated for 30 mins followed by serotonin addition in presence of coelenterazine h by luminescence assay; assay type: functional, cell-based
[16] = Ratio of test compound CC50 to doxorubicin CC50 for cytotoxicity against human SH-SY5Y cells incubated for 72 hrs by MTS assay; assay type: cell-based
[17] = test system: Rattus norvegicus; assay: Antidepressant activity in Wistar rat assessed as total distance moved at 1 mg/kg, ip pretreated for 60 mins and measured for 5 mins by open field test (reference value: 929 +/- 36 cm); assay type: functional
[18] = test system: Rattus norvegicus; assay: Antidepressant activity in Wistar rat assessed as ambulation-Y movement moved at 1 mg/kg, ip pretreated for 60 mins and measured for 5 mins by open field test (reference value: 187 +/- 14); assay type: functional
[19] = test system: Rattus norvegicus; assay: Antidepressant activity in Wistar rat assessed as reduction in immobility at 1 mg/kg, ip measured after 60 mins by forced swim test; assay type: functional; design: scale not given: the % may be the effect or the level left
[20] = test system: Rattus norvegicus; assay: Antidepressant activity in Wistar rat assessed as ambulation-X movement moved at 1 mg/kg, ip pretreated for 60 mins and measured for 5 mins by open field test (reference value: 213 +/- 13); assay type: functional
[21] = test system: Rattus norvegicus; assay: Antidepressant activity in Wistar rat assessed as rear movement moved at 1 mg/kg, ip pretreated for 60 mins and measured for 5 mins by open field test (reference value: 68 +/- 7); assay type: functional
[22] = test system: Rattus norvegicus; assay: Antidepressant activity in Wistar rat assessed as rear movement moved at 0.3 mg/kg, ip pretreated for 60 mins and measured for 5 mins by open field test (reference value: 57 +/- 6); assay type: functional
[23] = test system: Rattus norvegicus; assay: Antidepressant activity in Wistar rat assessed as ambulation-Y movement moved at 0.3 mg/kg, ip pretreated for 60 mins and measured for 5 mins by open field test (reference value: 187 +/- 15); assay type: functional
[24] = test system: Rattus norvegicus; assay: Antidepressant activity in Wistar rat assessed as reduction in immobility at 0.3 to 3 mg/kg, ip measured after 60 mins by forced swim test; assay type: functional; design: scale not given: the % may be the effect or the level left
[25] = test system: Rattus norvegicus; assay: Antidepressant-like activity in Wistar rat assessed as total distance moved at 0.3 mg/kg, ip pretreated for 60 mins and measured for 5 mins by open field test (reference value: 2165 +/- 119 cm); assay type: functional
[26] = test system: Rattus norvegicus; assay: Antidepressant activity in Wistar rat assessed as ambulation-X movement moved at 0.3 mg/kg, ip pretreated for 60 mins and measured for 5 mins by open field test (reference value: 190 +/- 12); assay type: functional
[27] = test system: Rattus norvegicus; assay: Antidepressant activity in Wistar rat assessed as reduction in immobility at 0.1 mg/kg, ip measured after 60 mins by forced swim test; assay type: functional, organism-based

T1 sequence (P50406 whole entry): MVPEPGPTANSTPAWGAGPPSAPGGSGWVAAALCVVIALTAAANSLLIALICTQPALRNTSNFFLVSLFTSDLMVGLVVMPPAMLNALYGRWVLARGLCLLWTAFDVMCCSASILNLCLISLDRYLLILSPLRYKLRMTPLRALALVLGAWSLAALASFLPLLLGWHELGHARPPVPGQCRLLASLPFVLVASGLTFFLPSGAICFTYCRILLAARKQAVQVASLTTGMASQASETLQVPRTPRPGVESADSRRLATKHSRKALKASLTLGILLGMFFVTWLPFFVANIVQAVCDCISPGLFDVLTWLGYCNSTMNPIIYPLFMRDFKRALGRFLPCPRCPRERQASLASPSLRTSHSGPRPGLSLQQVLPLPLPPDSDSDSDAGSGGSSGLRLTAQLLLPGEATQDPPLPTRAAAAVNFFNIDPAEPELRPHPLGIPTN

SMILES | Ki [1] [µM] | Ki [2] [µM] | Ki [3] [µM] | Ki [4] [µM] | Ki [5] [µM] | further results
Cc1cc(Cl)ccc1OCc1nc(N)nc(N2CCN(C)CC2)n1 | 0.911 | 7.69 | 15.2 | 4.37 | – | –
Cc1ccccc1OCc1nc(N)nc(N2CCN(C)CC2)n1 | 0.087 | 14.2 | 0.514 | 4.25 | 17.2 | –
CN1CCN2c3ccccc3Cc3ccccc3C2C1 (stereo not drawn) | – | – | – | – | – | Emax [6]: 1%
CN1CCN(c2nc(N)nc(CSc3ccccc3)n2)CC1 | 0.026 | 4.39 | 2.87 | 0.734 | 0.197 | –
CN1CCN(c2nc(N)nc(COc3ccccc3)n2)CC1 | – | 8.73 | 9.53 | 1.35 | 2.63 | –
CN1CCN(c2nc(N)nc(COc3ccccc3Cl)n2)CC1 | 0.129 | 5.47 | 9.25 | 2.36 | – | –
Cc1cc(OCc2nc(N)nc(N3CCN(C)CC3)n2)ccc1Cl | 0.355 | 3.58 | 5.84 | 1.22 | 0.197 | –
CN1CCN(c2nc(N)nc(CSc3ccccc3Cl)n2)CC1 | 0.126 | 1.68 | 0.614 | 0.329 | – | –
COc1ccc(S(=O)(=O)Nc2cc(Cl)cc(Cl)c2OC)cc1N1CCNCC1 | – | – | – | – | – | Activity [7]: Active
CC(Sc1ccccc1Cl)c1nc(N)nc(N2CCN(C)CC2)n1 (stereo not drawn) | 0.019 | 3.38 | 4.57 | 0.52 | 0.407 | Emax [6]: 1%; Selectivity ratio [8]: >4000; fold change (FC) [9]: 0.94; Activity [10]: 8.33; Activity [11]: 10.33; fold change (FC) [12]: 0.76; Activity [13]: Toxic; Activity [14]: inactive; Kb [15]: 0.0029 µM; selectivity ratio at 72 h [16]: 100
CC(Oc1ccccc1Cl)c1nc(N)nc(N2CCN(C)CC2)n1 (stereo not drawn) | 0.023 | 4.54 | 38.7 | 1 | 1.83 | Activity [17]: 1005 cm; Activity [18]: 227; Emax [6]: 1%; Selectivity ratio [8]: >4000; fold change (FC) [9]: 0.73; Activity [19]: 22%; Activity [10]: 11; Activity [20]: 269; Activity [11]: 8; fold change (FC) [12]: 1; Activity [21]: 46; Activity [13]: Toxic; Kb [15]: 0.003 µM; selectivity ratio at 72 h [16]: 100
Cc1ccc(OCc2nc(N)nc(N3CCN(C)CC3)n2)cc1 | 0.235 | 28.5 | 16.1 | 2.92 | – | –
CN1CCN(c2nc(N)nc(CS(=O)(=O)c3ccccc3Cl)n2)CC1 | 3.57 | > 1000 | 98.4 | 50.1 | 11.6 | –
Cc1cccc(OCc2nc(N)nc(N3CCN(C)CC3)n2)c1 | 0.207 | 15.1 | 10.7 | 0.74 | 2.27 | –
CC(Oc1cccc(Cl)c1)c1nc(N)nc(N2CCN(C)CC2)n1 (stereo not drawn) | 0.118 | 3.44 | 8.36 | 0.566 | 0.59 | –
Cc1ccc(C(C)C)c(OCc2nc(N)nc(N3CCN(C)CC3)n2)c1 | 0.011 | – | – | – | – | Activity [22]: 56; Emax [6]: 1%; Selectivity ratio [8]: >4000; fold change (FC) [9]: 0.55; Activity [10]: 4; Activity [23]: 290; Activity [11]: 4.67; fold change (FC) [12]: 0.47; Activity [24]: 20%; Activity [13]: Toxic; Activity [25]: 2833 cm; Activity [26]: 307; Activity [27]: inactive; Kb [15]: 0.0046 µM; selectivity ratio at 72 h [16]: 100
CN1CCN(c2nc(N)nc(COc3ccc(Cl)cc3Cl)n2)CC1 | 0.128 | 1.61 | 3.8 | 1.23 | – | –
O=S(=O)(c1ccccc1)c1cnc2c(N3CCNCC3)cccc2c1 | – | – | – | – | – | Emax [6]: 2%
CC([Se]c1ccccc1)c1nc(N)nc(N2CCN(C)CC2)n1 (stereo not drawn) | – | – | – | 0.656 | – | –
CN1CCN(c2nc(N)nc(COc3cccc(Cl)c3)n2)CC1 | 0.148 | 7.5 | 5.82 | 0.674 | – | –
CN1CCN(c2nc(N)nc(C[Se]c3ccccc3)n2)CC1 | – | – | – | 0.506 | – | –
